Publication PMC9910440, “NADP(H)-dependent biocatalysis without adding NADP(H)” (Proceedings of the National Academy of Sciences of the …, 2022)

Key:
[1] = biological target: T1, IDH1 (isocitrate dehydrogenase 1) (Homo sapiens, UniProt O75874, R132H); test: non-denaturing mass spectrometry; 1H NMR after denaturation; type: binding; conditions: copurified; NMR identifies NADPH only; resting state, no substrate
T1 construct: recombinant, purified; copurifies with NADP(H)

[2] = biological target: T2, IDH1 (isocitrate dehydrogenase 1) (Homo sapiens, UniProt O75874); test: 1H NMR of cofactor released by thermal denaturation; native MS; electrochemical retention; type: binding; conditions: copurified; resting state, no substrate; part of a NADP+/NADPH mixture
T2 construct: recombinant, purified; copurifies with NADP(H)

[3] = biological target: T1, IDH1 (isocitrate dehydrogenase 1); test: electrochemical retention after buffer exchange and potential switch; type: biochemical; conditions: nanoconfined with FNR; resting state; binds much less tightly than NADPH; pH 8, 10 mM MgCl2
[4] = biological target: T3, Ferredoxin NADP+ reductase (FNR) (Chlamydomonas reinhardtii, UniProt P53991); test: 1H NMR of cofactor released by denaturation; type: binding; conditions: prosthetic group
T3 construct: gene PETH; recombinant, purified; 39 kDa; FAD flavoprotein
T3 sequence (P53991 36-354): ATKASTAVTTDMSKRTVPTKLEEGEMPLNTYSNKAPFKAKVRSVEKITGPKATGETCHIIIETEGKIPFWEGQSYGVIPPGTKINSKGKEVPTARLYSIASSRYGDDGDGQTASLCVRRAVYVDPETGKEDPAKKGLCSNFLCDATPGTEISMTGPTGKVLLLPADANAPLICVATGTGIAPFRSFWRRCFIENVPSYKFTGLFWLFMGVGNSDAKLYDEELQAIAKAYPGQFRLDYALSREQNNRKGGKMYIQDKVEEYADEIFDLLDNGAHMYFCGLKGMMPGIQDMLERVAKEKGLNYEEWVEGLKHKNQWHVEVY

T1 sequence (O75874 whole entry R132H): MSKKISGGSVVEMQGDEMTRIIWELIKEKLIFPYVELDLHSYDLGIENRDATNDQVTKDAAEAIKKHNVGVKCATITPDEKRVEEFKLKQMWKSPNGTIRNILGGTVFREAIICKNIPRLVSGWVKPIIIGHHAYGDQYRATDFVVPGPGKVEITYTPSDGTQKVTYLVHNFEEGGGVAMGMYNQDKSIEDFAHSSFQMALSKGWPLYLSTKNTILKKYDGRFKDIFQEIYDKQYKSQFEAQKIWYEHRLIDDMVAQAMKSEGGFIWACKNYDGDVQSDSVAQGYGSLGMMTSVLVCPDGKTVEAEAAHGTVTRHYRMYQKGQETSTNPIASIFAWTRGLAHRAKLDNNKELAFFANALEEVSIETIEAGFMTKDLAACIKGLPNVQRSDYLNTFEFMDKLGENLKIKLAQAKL
T2 sequence (O75874 whole entry): as the sequence (O75874 whole entry R132H) above, with H132R counted along it

NADP(H) active site occupancy [1] | SMILES | 1H NMR of cofactor released by thermal denaturation; native MS; electrochemical [2] | electrochemical retention after buffer exchange and potential switch [3] | 1H NMR of cofactor released by denaturation [4]
~ 97.5% | NC(=O)C1=CN([C@@H]2O[C@H](COP(=O)(O)OP(=O)(O)OC[C@H]3O[C@@H](n4cnc5c(N)ncnc54)[C@H](OP(=O)(O)O)[C@@H]3O)[C@@H](O)[C@H]2O)C=CC1 [NADPH] | wild-type IDH1 (Fig. 1A) copurified with a mixture of NADP^+ and NADPH bound | – | –
– | NC(=O)c1ccc[n+]([C@@H]2O[C@H](COP(=O)(O)OP(=O)(O)OC[C@H]3O[C@@H](n4cnc5c(N)ncnc54)[C@H](OP(=O)(O)O)[C@@H]3O)[C@@H](O)[C@H]2O)c1 [NADP^+] | wild-type IDH1 (Fig. 1A) copurified with a mixture of NADP^+ and NADPH bound | IDH1 R132H binds NADP^+ much less tightly than NADPH | –
– | Cc1cc2nc3c(=O)[nH]c(=O)nc-3n(C[C@H](O)[C@H](O)[C@H](O)COP(=O)(O)OP(=O)(O)OC[C@H]3O[C@@H](n4cnc5c(N)ncnc54)[C@H](O)[C@@H]3O)c2cc1C [flavin adenine dinucleotide] | – | – | release of its prosthetic group, flavin adenine dinucleotide (FAD), upon denaturation
